Assay results: patent US20230226074A1, “METHODS OF USE FOR PYRIMIDINES AS FERROPORTIN INHIBITORS” (Global Blood Therapeutics, Inc., priority 2020, published 2023)

Biological target: T1, human ferroportin (Homo sapiens, UniProt Q9NP59)
T1 construct: luciferase reporter (probably NanoLuc, inferred from the Nano-Glo Luciferase Assay System read-out); expressed in transfected cells; host or cells: CHO cells, stably transfected, expression induced with doxycycline
T1 sequence (Q9NP59 1-571): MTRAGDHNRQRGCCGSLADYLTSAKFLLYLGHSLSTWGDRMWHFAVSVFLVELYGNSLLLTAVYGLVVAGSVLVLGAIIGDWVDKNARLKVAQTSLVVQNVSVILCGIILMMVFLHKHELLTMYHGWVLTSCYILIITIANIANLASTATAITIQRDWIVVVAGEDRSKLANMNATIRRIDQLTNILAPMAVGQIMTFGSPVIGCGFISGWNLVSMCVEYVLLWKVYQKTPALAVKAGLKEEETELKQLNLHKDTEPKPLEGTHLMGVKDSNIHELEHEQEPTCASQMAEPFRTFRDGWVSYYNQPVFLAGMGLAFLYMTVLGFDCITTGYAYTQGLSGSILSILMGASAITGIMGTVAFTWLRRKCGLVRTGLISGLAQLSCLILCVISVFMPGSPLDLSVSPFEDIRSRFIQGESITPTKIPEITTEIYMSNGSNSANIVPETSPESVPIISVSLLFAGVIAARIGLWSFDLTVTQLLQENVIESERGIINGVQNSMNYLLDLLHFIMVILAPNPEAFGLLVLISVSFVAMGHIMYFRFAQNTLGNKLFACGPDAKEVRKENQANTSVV
Assay: In-vitro ferroportin internalization assay (luciferase reporter)
Format: cell-based
Conditions: average pEC50; stably-transfected CHO cell line expressing human ferroportin tagged to a luciferase reporter; 6 h incubation with test compound
Procedure: The protocol for this assay is generally as described in WO2018/128828, incorporated herein by reference in its entirety. Functional internalization of ferroportin protein was measured using a stably-transfected CHO cell line expressing the human ferroportin tagged to a luciferase reporter. Cells were plated for 24 h in the presence of ferric ammonium citrate (FAC). Ferroportin protein expression was induced with doxycycline for 24 h. The next day, the compounds were added. Test compounds were dissolved in DMSO. Cells were incubated with the test compounds for 6 h, and subsequently luciferase activity was measured using the Nano-Glo Luciferase Assay System and Glomax (Promega, Madison, Wis.). The average pEC50 was determined for the test compounds.

SMILES | pEC50
CCN(CCO)c1nc(-c2ccccn2)nc2sc(C)c(-c3ccccc3)c12 [Compound 244, 2-{ethyl[6-methyl-5-phenyl-2-(pyridin-2-yl)thieno[2,3-d]pyrimidin-4-yl]amino}ethan-1-ol] | 5.4
CC1CC(=O)NCCN1c1nc(-c2ccccn2)nc2scc(-c3ccccc3)c12 (centres unmarked) [Compound 245, 7-methyl-1-[5-phenyl-2-(pyridin-2-yl)thieno[2,3-d]pyrimidin-4-yl]-1,4-diazepan-5-one] | 5.5
CN(CCCc1n[nH]c(N)c1C#N)c1nc(-c2ccccn2)nc2scc(-c3ccccc3)c12 [Compound 246, 5-amino-3-(3-{methyl[5-phenyl-2-(pyridin-2-yl)thieno[2,3-d]pyrimidin-4-yl]amino}propyl)-1H-pyrazole-4-carbonitrile] | 6.2
CN(CC(=O)N1CC2CC(C2)C1)c1nc(-c2cc(OCCO)ccn2)nc2c1CCC2 [Compound 433, 1-{3-azabicyclo[3.1.1]heptan-3-yl}-2-({2-[4-(2-hydroxyethoxy)pyridin-2-yl]-5H,6H,7H-cyclopenta[d]pyrimidin-4-yl}(methyl)amino)ethan-1-one] | 8.1

Further lines, results first:

pEC50 | SMILES
7.3 | COc1ccc(NC(=O)[C@@H](C(C)C)N(C)c2nc(-c3ccccn3)nc3c2CCC3)cn1 [Compound 315, (2R)-N-(6-methoxypyridin-3-yl)-3-methyl-2-{methyl[2-(pyridin-2-yl)-5H,6H,7H-cyclopenta[d]pyrimidin-4-yl]amino}butanamide]
7.5 | COc1ccc(NC(=O)CN(C)c2nc(-c3cc4cn[nH]c4cn3)nc3c2CCC3)nc1 [Compound 334, N-(5-methoxypyridin-2-yl)-2-[methyl(2-{1H-pyrazolo[3,4-c]pyridin-5-yl}-5H,6H,7H-cyclopenta[d]pyrimidin-4-yl)amino]acetamide]
7.7 | CN(C)CCOc1ccnc(-c2nc3c(c(N(C)CC(=O)NC(C)(C)C)n2)CCC3)c1 [Compound 417, N-tert-butyl-2-[(2-{4-[2-(dimethylamino)ethoxy]pyridin-2-yl}-5H,6H,7H-cyclopenta[d]pyrimidin-4-yl)(methyl)amino]acetamide]
7.7 | CN(CC(=O)NC(C)(C)C)c1nc(-c2cc(OC[C@H](O)CO)ccn2)nc2c1CCC2 [Compound 484, N-tert-butyl-2-[(2-{4-[(2R)-2,3-dihydroxypropoxy]pyridin-2-yl}-5H,6H,7H-cyclopenta[d]pyrimidin-4-yl)(methyl)amino]acetamidede]
